{"source": "patent US10330673B2", "about": "“Fluorescent chemical sensor for biological amines” (The Curators of the University of Missouri, priority 2013, dated 2019)", "key": {"[1]": {"tested_on": "norepinephrine-enriched chromaffin cells", "experiment": "Live-cell confocal imaging with Compound I-2, norepinephrine-enriched cells", "assay_type": "cell-based, bovine", "conditions": "0.1 μM", "method": "(§1) Chromaffin cells were separated into norepinephrine-enriched and epinephrine-enriched fractions by centrifugation on a Percoll gradient. Both populations were independently incubated with a 0.1 μM solution of Compound I-2 at 37° C. for 30 minutes and then washed to remove excess sensor and plated.\n(§2) Chromaffin cells were isolated from bovine adrenal glands as previously described. Following centrifugation at 18° C. at 13,000 rpm for 45 minutes in the Percoll gradient, chromaffin cells separate into fractions enriched with either epinephrine-enriched cells (denser band) and norepinephrine-enriched cells (lighter band). Moro, M. A.; Lépez, M. G.; Gandía, L.; Michelena, P.; Garcia, G. Separation and culture of living adrenaline- and noradrenaline-containing cells from bovine adrenal medullae. Anal. Biochem. 1990, 185, 243-248. Over 90% of the catecholamine content found in the cells in the denser fraction are epinephrine, whereas approximately 67% of the catecholamine content in the lighter fraction are norepinephrine. Liu, X.; Barizuddin, S.; Shin, W.; Mathai, C. J.; Gangopadhyay, S.; Gillis, K. D. Microwell device for targeting single cells to electrochemical microelectrodes for high-throughput amperometric detection of quantal exocytosis. Anal. Chem. 2011, 83, 2445-2451. The two cell fractions were collected from the Percoll gradient with careful pipetting and separately cultured. […]"}, "[2]": {"experiment": "Fluorescence titration of sensor with glycine", "assay_type": "binding", "conditions": "amine guest glycine"}, "[3]": {"tested_on": "epinephrine-enriched chromaffin cells", "experiment": "Live-cell confocal imaging with Compound I-2, epinephrine-enriched cells", "assay_type": "cell-based, bovine", "conditions": "0.1 μM", "method": "as §1, §2"}, "[4]": {"tested_on": "EP-enriched chromaffin cells", "experiment": "Fixed-cell staining with I-2 and anti-PNMT antibody, EP-enriched cells", "assay_type": "cell-based, bovine", "conditions": "585 nm = anti-PNMT/Cy3, 525 nm = I-2 (1 μM), ImageJ", "description": "(§3) To further validate the selectivity of the inventive sensor, the inventive detection method is validated with an established procedure in which phenylethanolamine N-methyltransferase (PNMT) is stained with an antibody and visualized with a Cy3-conjugated secondary antibody. It has been shown that epinephrine-enriched cell populations gave the highest level of PNMT staining, while norepinephrine-enriched populations gave lower staining (ca. 20% of that with epinephrine-enriched cells). For this experiment, three populations of chromaffin cells (norepinephrine-enriched, epin ephrine-enriched, and mixed) were stained with Compound I-2 and fixed in 4% paraformaldehyde. The fixed cells were stained with the anti-PNMT and secondary antibodies.\n(§4) Chromaffin cells were isolated from bovine adrenal glands as previously described. […]\n(§5) NE-enriched cells, EP-enriched cells and mixed cells stained with I-2 (1 μM) and plated on 0.0025% Poly (1-lysine) coated cover slips, after three washed with pre-warmed phosphate-buffered saline (pH=7.4, PBS), were fixed in 4% paraformaldehyde (Sigma, St. Louis, Mo., USA) in PBS for 60 min at room temperature (RT), followed by 6 min in methanol chilled to −20° C. […] After three washed in PBS, bound antibody was detected using Cy™3-conjugated AffiniPure Donkey Anti-Rabbit (1:150 dilution, Jackson ImmunoResearch Laboratories, Inc, Nest Grove, Pa., 19390). […]"}, "[5]": {"tested_on": "NE-enriched chromaffin cells", "experiment": "Fixed-cell staining with I-2 and anti-PNMT antibody, NE-enriched cells", "assay_type": "cell-based, bovine", "conditions": "1 μM, fixed in 4% paraformaldehyde, visualized at 525 nm", "description": "as §3, §4, §5"}, "[6]": {"experiment": "Binding affinity toward free primary amines"}, "[7]": {"conditions": "37° C., 30 minutes, 488 nm excitation (bound sensor)"}, "[8]": {"conditions": "excited at 440 nm (unbound sensor)"}}}
{"compound": "CCN(CC)c1ccc2c(-c3ccc(OC)cc3)c(C=O)c(=O)oc2c1", "note": "[Compound I-2, 7-diethylamino-3-formyl-4-(4′-methoxyphenyl)coumarin]", "values": [{"measurement": "cell fluorescence, confocal microscopy", "setting": "[1]; [7]", "result": "strong, punctate fluorescence"}, {"measurement": "cell fluorescence, confocal microscopy", "setting": "[1]; [8]", "result": "No significant fluorescence"}, {"measurement": "Ka", "setting": "[2]; fluorescence spectroscopy, λex = 488 nm, λem = 521 nm", "result": 8, "unit": "M⁻¹"}, {"measurement": "Isat/Io (λex = 488 nm)", "setting": "[2]; intensity at saturation from fit to binding isotherm", "result": 11.1}, {"measurement": "cell fluorescence, confocal microscopy", "setting": "[3]; [7]", "result": "marginal fluorescence"}, {"measurement": "cell fluorescence, confocal microscopy", "setting": "[3]; [8]", "result": "No significant fluorescence"}, {"measurement": "average fluorescence intensity at 585 nm vs. 525, epinephrine-enriched relative to norepinephrine-enriched cells", "setting": "[4]", "result": 6, "unit": "times"}, {"measurement": "staining of fixed cells by sensor", "setting": "[5]", "result": "stain brightly"}, {"measurement": "binding affinities toward free primary amines", "setting": "[6]", "result": "~10", "unit": "M⁻¹"}]}
